In this experiment the target is human F508del-CFTR (Homo sapiens, UniProt P13569, DEL508-508). Nature of the experiment: F508del-CFTR cell surface expression (corrector activity), DiscoveRx ß-galactosidase complementation chemiluminescence assay in recombinant U2OS cell line.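 As to all read-outs here: U2OS cells co-expressing ProLink-tagged F508del-CFTR and a membrane-anchored enzyme acceptor, where more surface CFTR restores β-galactosidase activity measured by chemiluminescence.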 The following applies: U2OS cell line, 16h compound incubation; for EC50: EC50, F508del-CFTR cell surface expression, geomean values; for Emax: U2OS, in relation to the Emax of the corrector lumacaftor (=100%), arithmetic mean values.
Chain of human F508del-CFTR (P13569 with tags, fused parts or gaps DEL508-508): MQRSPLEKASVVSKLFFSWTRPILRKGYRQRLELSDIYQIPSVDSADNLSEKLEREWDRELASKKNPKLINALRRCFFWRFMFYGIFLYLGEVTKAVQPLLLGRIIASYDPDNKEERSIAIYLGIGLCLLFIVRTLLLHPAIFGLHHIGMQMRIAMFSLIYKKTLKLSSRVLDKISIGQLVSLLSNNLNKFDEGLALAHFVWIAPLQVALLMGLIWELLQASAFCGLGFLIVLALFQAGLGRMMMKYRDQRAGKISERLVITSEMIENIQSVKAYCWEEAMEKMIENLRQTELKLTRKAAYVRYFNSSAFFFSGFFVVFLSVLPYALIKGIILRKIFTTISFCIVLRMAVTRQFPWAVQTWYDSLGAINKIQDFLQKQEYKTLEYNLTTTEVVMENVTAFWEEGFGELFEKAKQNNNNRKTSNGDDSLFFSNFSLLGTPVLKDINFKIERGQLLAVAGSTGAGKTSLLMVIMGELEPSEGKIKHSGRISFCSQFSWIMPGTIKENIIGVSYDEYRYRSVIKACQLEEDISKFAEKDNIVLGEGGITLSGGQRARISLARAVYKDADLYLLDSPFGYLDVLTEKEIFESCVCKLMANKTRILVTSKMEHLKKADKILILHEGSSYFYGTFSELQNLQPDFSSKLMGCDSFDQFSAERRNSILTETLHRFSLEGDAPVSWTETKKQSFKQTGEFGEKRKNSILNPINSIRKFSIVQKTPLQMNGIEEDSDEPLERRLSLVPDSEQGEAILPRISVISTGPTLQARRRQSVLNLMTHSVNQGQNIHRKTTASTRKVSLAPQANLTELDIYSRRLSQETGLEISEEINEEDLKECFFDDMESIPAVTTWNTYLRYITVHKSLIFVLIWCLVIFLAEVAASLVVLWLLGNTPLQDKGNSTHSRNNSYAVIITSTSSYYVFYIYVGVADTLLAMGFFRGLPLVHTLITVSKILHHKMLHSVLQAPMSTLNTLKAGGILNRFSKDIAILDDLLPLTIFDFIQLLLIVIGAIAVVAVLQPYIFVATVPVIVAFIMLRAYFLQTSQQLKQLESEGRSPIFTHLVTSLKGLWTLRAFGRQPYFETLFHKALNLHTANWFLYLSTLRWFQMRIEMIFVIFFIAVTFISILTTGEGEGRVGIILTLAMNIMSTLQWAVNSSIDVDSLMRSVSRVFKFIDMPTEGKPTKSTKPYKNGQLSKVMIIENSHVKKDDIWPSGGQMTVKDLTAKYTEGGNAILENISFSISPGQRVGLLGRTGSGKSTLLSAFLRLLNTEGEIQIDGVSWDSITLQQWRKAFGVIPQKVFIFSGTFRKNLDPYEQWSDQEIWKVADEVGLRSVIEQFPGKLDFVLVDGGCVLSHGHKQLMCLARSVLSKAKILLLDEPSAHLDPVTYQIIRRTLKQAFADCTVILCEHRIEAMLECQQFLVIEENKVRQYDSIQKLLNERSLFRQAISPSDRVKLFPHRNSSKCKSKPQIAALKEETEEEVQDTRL

As usually defined, the EC50 is the concentration giving half of the maximal effect. The term Emax denotes the greatest response seen or fitted, relative to the assay's reference. Regarding `COc1cccc(CCNC(=O)[C@@H]2CC(=O)N(C)CC(=O)N(CCC3CCCCC3)CC(=O)N[C@H](Cc3ccccc3)COc3cccc(OC)c3C(=O)N2)c1` [Example 258, (3R,13S)-3-benzyl-7-(2-cyclohexylethyl)-16-methoxy-N-(3-methoxyphenethyl)-10-methyl-5,8,11,15-tetraoxo-2,3,4,5,6,7,8,9,10,11,12,13,14,15-tetradecahydrobenzo[p][1]oxa[4,7,10,14]tetraazacycloheptadecine-13-carboxamide], the EC50 turned out to be 424 nM and the Emax was found to be 117%.
For `COc1cccc2c1C(=O)N[C@H](C(=O)NCCc1ccc3c(c1)OCCCC3)CC(=O)N(C)[C@@H](CC(C)C)C(=O)N1CCOC[C@@H]1C(=O)N[C@H](Cc1ccccc1)CO2` [Example 260, (7S,11S,20R,22aR)-20-benzyl-7-isobutyl-14-methoxy-8-methyl-6,9,13,22-tetraoxo-N-(2-(2,3,4,5-tetrahydrobenzo[b]oxepin-8-yl)ethyl)-1,3,4,6,7,8,9,10,11,12,13,19,20,21,22,22a-hexadecahydrobenzo[p][1,4]oxazino[3,4-f][1]oxa[4,7,10,14]tetraazacycloheptadecine-11-carboxamide] the same measures were 783 nM and 243%.
As to `CC(C)C[C@H]1C(=O)N(CCC2CCCCC2)CC(=O)N[C@H](Cc2ccccc2)COc2ccncc2C(=O)N[C@H](C(=O)NCCc2ccc3c(c2)OCCC3)CC(=O)N1C` [Example 261, (3R,9S,13S)-3-benzyl-N-(2-(chroman-7-yl)ethyl)-7-(2-cyclohexylethyl)-9-isobutyl-10-methyl-5,8,11,15-tetraoxo-2,3,4,5,6,7,8,9,10,11,12,13,14,15-tetradecahydropyrido[3,4-p][1]oxa[4,7,10,14]tetraazacycloheptadecine-13-carboxamide], the EC50 is 327 nM and the Emax was found to be 215%.
For `CC(C)C[C@H]1C(=O)N(CCC2CCCCC2)CC(=O)N[C@H](Cc2ccccc2)COc2ccncc2C(=O)N[C@H](C(=O)NCCc2ccc3c(c2)OCC3)CC(=O)N1C` [Example 262, (3R,9S,13S)-3-benzyl-7-(2-cyclohexylethyl)-N-(2-(2,3-dihydrobenzofuran-6-yl)ethyl)-9-isobutyl-10-methyl-5,8,11,15-tetraoxo-2,3,4,5,6,7,8,9,10,11,12,13,14,15-tetradecahydropyrido[3,4-p][1]oxa[4,7,10,14]tetraazacycloheptadecine-13-carboxamide], in that order: 339 nM and 231%.
For `COc1cccc2c1C(=O)N[C@H](C(=O)NCCc1ccc3c(c1)OCO3)CC(=O)N(C)[C@@H](C)C(=O)N(CCC1CCCCC1)CC(=O)N[C@H](Cc1ccccc1)CO2` [Example 263, (3R,9S,13S)-N-(2-(benzo[d][1,3]dioxol-5-yl)ethyl)-3-benzyl-7-(2-cyclohexylethyl)-16-methoxy-9,10-dimethyl-5,8,11,15-tetraoxo-2,3,4,5,6,7,8,9,10,11,12,13,14,15-tetradecahydrobenzo[p][1]oxa[4,7,10,14]tetraazacycloheptadecine-13-carboxamide] the same measures were 448 nM and 140%.
For `COc1cccc(CCNC(=O)[C@@H]2CC(=O)N(C)[C@@H](C)C(=O)N(CCC3CCCCC3)CC(=O)N[C@H](Cc3ccccc3)COc3cccc(OC)c3C(=O)N2)c1` [Example 264, (3R,9S,13S)-3-benzyl-7-(2-cyclohexylethyl)-16-methoxy-N-(3-methoxyphenethyl)-9,10-dimethyl-5,8,11,15-tetraoxo-2,3,4,5,6,7,8,9,10,11,12,13,14,15-tetradecahydrobenzo[p][1]oxa[4,7,10,14]tetraazacycloheptadecine-13-carboxamide] the same measures were 442 nM and 117%.
Turning to `CC(C)C[C@H]1C(=O)N(CCC2CCCCC2)CC(=O)N[C@H](Cc2ccccc2)COc2cnccc2C(=O)N[C@H](C(=O)NCCc2ccc3c(c2)OCO3)CC(=O)N1C` [Example 265, (3R,9S,13S)-N-(2-(benzo[d][1,3]dioxol-5-yl)ethyl)-3-benzyl-7-(2-cyclohexylethyl)-9-isobutyl-10-methyl-5,8,11,15-tetraoxo-2,3,4,5,6,7,8,9,10,11,12,13,14,15-tetradecahydropyrido[4,3-p][1]oxa[4,7,10,14]tetraazacycloheptadecine-13-carboxamide], the half-maximal effective concentration (EC50) stood at 266 nM and the Emax was 106%.
For `COc1cccc(CCNC(=O)[C@@H]2CC(=O)N(C)[C@@H](CC(C)C)C(=O)N(CCC3CCCCC3)CC(=O)N[C@H](Cc3ccccc3)COc3cnccc3C(=O)N2)c1` [Example 266, (3R,9S,13S)-3-benzyl-7-(2-cyclohexylethyl)-9-isobutyl-N-(3-methoxyphenethyl)-10-methyl-5,8,11,15-tetraoxo-2,3,4,5,6,7,8,9,10,11,12,13,14,15-tetradecahydropyrido[4,3-p][1]oxa[4,7,10,14]tetraazacycloheptadecine-13-carboxamide], in that order: 357 nM and 136%.
Take `CC(C)C[C@H]1C(=O)N(CCC2CCCCC2)CC(=O)N[C@H](Cc2ccccc2)COc2ccc3ccccc3c2C(=O)N[C@H](C(=O)NCCc2ccc3c(c2)OCO3)CC(=O)N1C` [Example 267, (3S,7S,13R)-N-(2-(benzo[d][1,3]dioxol-5-yl)ethyl)-13-benzyl-9-(2-cyclohexylethyl)-7-isobutyl-6-methyl-1,5,8,11-tetraoxo-1,2,3,4,5,6,7,8,9,10,11,12,13,14-tetradecahydronaphtho[1,2-p][1]oxa[4,7,10,14]tetraazacycloheptadecine-3-carboxamide]: the EC50 was 107 nM and the Emax is 275%.
For `COc1cccc(CCNC(=O)[C@@H]2CC(=O)N(C)[C@@H](CC(C)C)C(=O)N(CCC3CCCCC3)CC(=O)N[C@H](Cc3ccccc3)COc3ccc4ccccc4c3C(=O)N2)c1` [Example 268, (3S,7S,13R)-13-benzyl-9-(2-cyclohexylethyl)-7-isobutyl-N-(3-methoxyphenethyl)-6-methyl-1,5,8,11-tetraoxo-1,2,3,4,5,6,7,8,9,10,11,12,13,14-tetradecahydronaphtho[1,2-p][1]oxa[4,7,10,14]tetraazacycloheptadecine-3-carboxamide], the EC50 was 100 nM and the Emax turned out to be 273%.
For `CC(C)C[C@H]1C(=O)N(C)CC(=O)N[C@H](Cc2ccccc2)COc2ccc3ccccc3c2C(=O)N[C@H](C(=O)NCCc2ccc3c(c2)OCO3)CC(=O)N1C` [Example 269, (3S,7S,13R)-N-(2-(benzo[d][1,3]dioxol-5-yl)ethyl)-13-benzyl-7-isobutyl-6,9-dimethyl-1,5,8,11-tetraoxo-1,2,3,4,5,6,7,8,9,10,11,12,13,14-tetradecahydronaphtho[1,2-p][1]oxa[4,7,10,14]tetraazacycloheptadecine-3-carboxamide], in that order: 350 nM and 251%.
For `Cc1cc2c(cn1)C(=O)N[C@H](C(=O)NCCc1ccc3c(c1)OCO3)CC(=O)N(C)[C@@H](CC(C)C)C(=O)N(CCC1CCCCC1)CC(=O)N[C@H](Cc1ccccc1)CO2` [Example 270, (3R,9S,13S)-N-(2-(benzo[d][1,3]dioxol-5-yl)ethyl)-3-benzyl-7-(2-cyclohexylethyl)-9-isobutyl-10,18-dimethyl-5,8,11,15-tetraoxo-2,3,4,5,6,7,8,9,10,11,12,13,14,15-tetradecahydropyrido[3,4-p][1]oxa[4,7,10,14]tetraazacycloheptadecine-13-carboxamide], in that order: 423 nM and 172%.

Source of the values: patent publication US20240208992A1, “MACROCYCLES AS CFTR MODULATORS” (Idorsia Pharmaceuticals Ltd, priority 2021, published 2024).
